Experimental data as given in patent publication US8609347B2, “Biomarkers for prenatal diagnosis of congenital cytomegalovirus” (priority 2007, dated 2013).

How the values were obtained:
Type in all cases: cell-based, human
[1] = system: CEACAM1; test: CEACAM1 expression by flow cytometry in HUVEC; conditions: treatment with antioxidants; ratios of mean fluorescence intensity to control cells
Source text: FIG. 6A-D: CEACAM protein increases in CMV-infected HUVEC. (A) (Left panel) Flow cytometric analysis of CEACAM1 surface expression. Typical histograms from control and infected human umbilical vein endothelial cells (HUVEC) are shown. Shaded areas represent expression of specific proteins, and lines represent isotype control. (Middle panel) Graphs represent mean fluorescence intensity (mean±SE). Statistically significant differences are indicated (*p<0.05, **p<0.001). (Right panel) VR1814-infected HUVEC increase intracellular CEACAM1 protein. Permeabilized cells were analyzed by flow cytometry. Shaded areas represent expression of specific proteins; lines represent isotype control. (B) CEACAM1 levels in conditioned medium measured by ELISA. Polyclonal and biotinylated CEACAM1-specific IgG (R&D Systems) were used for coating and detection, respectively. CEACAM1 was quantified with peroxidase-conjugated streptavidin. CEACAM1 concentration increased in conditioned medium from infected HUVEC (1 PFU/cell). Graphs represent mean value±SE (n=4). Statistically significant differences are indicated (*p<0.05). (C) Infected HUVEC and controls were immunostained for CEACAM1 and CMV gB. Please Note: cells without viral proteins express CEACAM1. […] Ratios of the mean fluorescence intensity were obtained with control cells.

[2] = system: type IV collagen; test: Type IV collagen expression (flow cytometry, immunoblot) in CMV-infected HUVECs; conditions: infected HUVECs treated for 7 days
Description: FIG. 22: Increased type IV collagen synthesis by CMV infection was blocked by anti-TGF-β and anti-αvβ6 neutralizing antibodies. A: Surface expression of type IV collagen was analyzed by flow cytometric analysis at 10 days after infection. Typical histograms from control (cont.) and infected (inf.) HUVECs are shown. Shaded areas represent expression of specific proteins. Lines represent isotype control. B: The results represent the mean fluorescence intensity of type IV collagen (mean±SE) from three to seven experiments. Asterisks indicate surface expression in infected HUVECs as compared with uninfected controls (*P<0.01). C: Cell lysates from control (cont.) or infected (inf.) HUVECs at 3, 7, and 10 days after infection were fractionated by 8% SDS-PAGE and blotted on nitrocellulose. Filters were incubated with anti-type IV collagen (Col IV) and anti-actin (loading control) antibodies. D: Surface expression of type IV collagen was analyzed by flow cytometric analysis at 7 days without antibody (untreated) or with anti-TGF-β neutralizing antibody (1D11), function-blocking anti-αvβ6 antibody (3G9), or mouse IgG1 isotype control antibody (control Ab). Relative surface expression as expressed by mean fluorescence intensity was normalized for control HUVECs in the same experiment. Results are the mean (±SE) from three experiments. […]

[3] = system: fibronectin; test: Surface expression of fibronectin in CMV-infected HUVECs; conditions: late times after infection
Source text: TGF-β1 is a potent fibrotic factor responsible for the synthesis of ECM, and profibrotic TGF-β1 responses are induced primarily via ALK5/Smad3 signal transduction in normal fibroblasts (Ishida et al., J Invest Dermatol, 126:1733-1744 (2006)). TGF-β1 also potently promotes the synthesis and deposition of ECM in endothelial cells (Pepper, M. S., Cytokine Growth Factor Rev, 8:21-43 (1997)). […] Therefore, it was investigated in the present example whether CMV-activated TGF-β1 could increase ECM production and whether blocking TGF-β1 activation could prevent the effect. […] To evaluate the effect of inhibition of activation of TGF-β1 on CMV-induced profibrotic response, infected cells were treated with anti-TGF-β (1D11) and anti-αvβ6 (3G9) antibodies for 7 days. […] In addition, surface expression of fibronectin was increased at late times after infection, and was reduced by the ALK5 kinase inhibitor.

[4] = system: Smad3 phosphorylation; test: Smad3 phosphorylation by immunoblot in CMV-infected HUVECs; conditions: 8-day infected HUVECs; 1D11 40 μg/ml, 3G9 80 μg/ml, SB431542 2.5 μmol/L
Description: FIG. 19: CMV-infected HUVECs induce Smad3 phosphorylation. Cell lysates from control (cont.) or infected (inf.) HUVECs at 3, 7, and 10 days after infection were fractionated by 10% SDS-PAGE and blotted on nitrocellulose. Phosphorylation of Smad3 (pSmad3) and Smad1/5 (pSmad1/5) was analyzed by immunoblotting using phospho-specific Smad3 and Smad1/5/8 (pSmad1/5) antibodies. Equal loading of the gels was confirmed using Smad2/3, Smad1, and Smad5 protein levels. B: Effects of anti-TGF-β antibody, anti-αvβ6 antibody (3G9), and ALK5 kinase inhibitor on Smad3 phosphorylation. […]
Activated TGF-β1 can bind the type I receptors ALK1 and ALK5, which then phosphorylate the transcriptional activators Smad1/5 and Smad2/3, respectively (ten Dijke, P. and Hill, C. S., Trends Biochem Sci, 29:265-273 (2004)). To determine which of these TGF-β1 signaling pathways is activated in CMV-infected HUVECs, Smad1/5 and Smad3 phosphorylation was analyzed by immunoblotting with antibodies specific to Smads and their phosphorylated forms (FIG. 19A). Smad3 phosphorylation was strongly detected in 7- and 10-day-infected cells. […] Phosphorylated Smad1/5 was also weakly detected in the control. […]

[5] = system: integrin β6; test: Surface expression of integrin αvβ6 by flow cytometry in CMV-infected HUVECs; conditions: 7 days, SB431542 0.1 to 1 μmol/L, Foscarnet 400 μmol/L, phosphonoacetic acid 100 μg/ml
Description: FIG. 20: Induction of integrin αvβ6 expression requires TGF-β signaling and viral DNA replication A: Infected HUVECs were cultured with or without chicken anti-TGF-β polyclonal antibody (20 μg/ml), chicken IgY isotype control antibody (control Ab, 20 μg/ml), the ALK5 kinase inhibitor SB431542 (0.5 μmol/L), or the vehicle DMSO for 7 days, and surface expression of integrin αvβ6 was analyzed by flow cytometric analysis. Typical histograms are shown. Shaded areas represent expression of specific proteins. Lines represent isotype control. Experiments were repeated at least two times. B: Surface expression of integrin αvβ6 was analyzed by flow cytometric analysis at 7 days after infection with or without viral DNA polymerase inhibitors, Foscarnet, and phosphonoacetic acid (PAA). Typical histograms are shown. Shaded areas represent expression of specific proteins. Lines represent isotype control. Experiments were repeated six times. C: Active TGF-β was not produced by infected HUVECs in the presence of viral DNA polymerase inhibitors. Equal numbers of TMLC TGF-β reporter cells and control (cont.) or infected HUVECs were cultured for 16 to 24 hours at 7 days after infection. Relative luciferase activity in cell lysates was defined as the measured activity divided by TMLC baseline activity. Representative data (mean±SE) are from four experiments done in triplicate.
The present example assesses how integrin β6 is induced on CMV infection in HUVECs. It has been reported that TGF-β1 induces de novo synthesis of integrin β6 in normal human keratinocytes (Zambruno et al., J Cell Biol, 129:853-865 (1995)) and strongly up-regulates its expression in primary cultures of human airway epithelial cells (Wang et al., Am J Respir Cell Mol Biol, 15:664-672 (1996)). […] HUVECs were cultured with the filtered conditioned medium for 8 days, and expression of integrin β6 was analyzed. […] It was then determined whether viral late gene expression is required for the up-regulation of integrin β6 in infected cells because the expression was observed only at late times after infection. […]

[6] = system: TGF-β1 activation in CMV-infected HUVECs; test: TGF-β bioassay: TMLC TGF-β reporter cells co-cultured with CMV-infected HUVECs, luciferase activity; conditions: 7 days after infection; Foscarnet 400 μmol/L or phosphonoacetic acid 100 μg/ml
Source text: FIG. 18: Integrin αvβ6-dependent TGF-β1 activation in CMV-infected HUVECs. A: TGF-β1 production by infected HUVECs. Conditioned medium was collected from control (open circles) and infected (filled circles) HUVECs at 1 to 9 days, and TGF-β1 was quantified by enzyme-linked immunosorbent assay. Results are the mean (±SE) of three experiments done in duplicate. Asterisks indicate the amount of TGF-β1 in infected HUVECs as compared with uninfected controls (*P<0.05, **P<0.01). B: Surface expression of TGF-β1 in HUVECs was analyzed by flow cytometry at 3, 7, and 10 days after infection and controls (cont). Typical histograms are shown. Shaded areas represent expression of specific proteins. Lines represent isotype control. Experiments were repeated at least three times. C: Total TGF-β1 was analyzed by flow cytometry using permeabilized cells at 3, 7, and 10 days after infection (inf.) and controls (cont). Left: Typical histograms at 10 days are shown. Shaded areas represent expression of specific proteins. Lines represent isotype control. Right: Results are the mean fluorescence intensity (±SE) of three experiments. Asterisks indicate expression in infected HUVECs as compared with uninfected controls (*P<0.05). D: TGF-β bioassay of active TGF-β produced by infected HUVECs. […] Relative luciferase activity in cell lysates was defined as the measured activity divided by TMLC baseline activity. […]

Structure (SMILES) | CEACAM1 expression [1] | induction of integrin β6 [5] | induction of TMLC luciferase activity (active TGF-β) [6] | further results
C[S+](C)[O-] [DMSO, dimethyl sulfoxide] | reduce CEACAM1 expression | – | – | –
NC(=O)c1ccc(-c2nc(-c3ccc4c(c3)OCO4)c(-c3ccccn3)[nH]2)cc1 [SB431542] | – | nearly abolish it at high concentrations | – | surface expression of type IV collagen [2]: inhibitory effect; surface expression of fibronectin [3]: reduced; Smad3 phosphorylation [4]: prevented Smad3 phosphorylation
O=C(O)P(=O)(O)O [Foscarnet] | – | blocked induction of integrin β6 | strongly suppressed | –
OCCS [β-mercaptoethanol] | reduce CEACAM1 expression | – | – | –
O=C(O)CP(=O)(O)O [phosphonoacetic acid] | – | blocked induction of integrin β6 | strongly suppressed | –
O[C@H](CS)[C@H](O)CS (racemic) [DTT, dithiothreitol] | reduce CEACAM1 expression | – | – | –
